Assay results taken from patent US10752612B2, “PLK4 inhibitors” (LUDWIG INSTITUTE FOR CANCER RESEARCH LTD, priority 2015, dated 2020).

Biological target: T1, human Plk4 kinase domain (aa 2-275) (Homo sapiens, UniProt O00444)
T1 construct: purified 6×His-tagged human Plk4 kinase domain (aa 2-275); 6xHis; made in house; host or cells: E. coli
T1 sequence (O00444 2-275): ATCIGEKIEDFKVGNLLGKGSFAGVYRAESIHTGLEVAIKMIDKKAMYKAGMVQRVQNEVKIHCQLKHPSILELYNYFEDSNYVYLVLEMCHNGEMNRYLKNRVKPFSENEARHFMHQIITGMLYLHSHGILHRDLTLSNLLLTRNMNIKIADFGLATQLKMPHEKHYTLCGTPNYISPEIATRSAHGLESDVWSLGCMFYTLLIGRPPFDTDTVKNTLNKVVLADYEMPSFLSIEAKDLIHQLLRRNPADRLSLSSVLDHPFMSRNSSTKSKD
Assay: Plk4 kinase assay (ADP-Glo)
Format: biochemical
Conditions: Table 1
Procedure, shortened: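 Enzyme at 2.5-10 nM final, pH 8.0, reacted 4-16 hours at 25° C; ADP generation read by ADP-Glo luminescence. Ki derived from IC50 by Cheng-Prusoff or, for tight binders, Copeland formalism.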

SMILES | IC50
Cc1cc(Nc2nc(Sc3ccc(NC(=O)C4CC4)cc3)nc(N3CCN(C)CC3)c2C)n[nH]1 | < 1 µM
CCN1CCN(c2nc(Sc3ccc(NC(=O)C4CC4)cc3)nc(Nc3cc(C)[nH]n3)c2OC)CC1 | < 1 µM
COCCN1CCN(c2nc(Sc3ccc(NC(=O)C4CC4)cc3)nc(Nc3cc(C)[nH]n3)c2OC)CC1 | < 1 µM
COc1c(Nc2cc(C)[nH]n2)nc(Sc2ccc(NC(=O)C3CC3)cc2)nc1N1CCN(CCN(C)C)CC1 | < 1 µM
Cc1cc(Nc2nc(Sc3ccc(NC(=O)C4CC4)cc3)nc(N(C)C(C)C)c2C)n[nH]1 | < 1 µM
COCCNc1nc(Sc2ccc(NC(=O)C3CC3)cc2)nc(Nc2cc(C)[nH]n2)c1C | < 1 µM
Cc1cc(Nc2nc(Sc3ccc(NC(=O)C4CC4)cc3)nc(N3CCCCC3)c2C)n[nH]1 | < 1 µM
CNc1nc(Sc2ccc(NC(=O)C3CC3)cc2)nc(Nc2cc(C)[nH]n2)c1C | < 1 µM
COc1c(Nc2cc(C)[nH]n2)nc(Sc2ccc(S(=O)(=O)C(C)(C)c3c(F)c(F)cc(F)c3F)cc2F)nc1N1CC[C@@H](N(C)C)C1 | < 1 µM
COc1c(Nc2cc(C)[nH]n2)nc(Sc2ccc(S(=O)(=O)C(C)(C)c3c(F)c(F)c(F)c(F)c3F)cc2F)nc1N1CCC(N(C)C)CC1 | < 1 µM
COc1c(Nc2cc(C)[nH]n2)nc(Sc2ccc(S(=O)(=O)C(C)(C)c3c(F)c(F)c(F)c(F)c3F)cc2F)nc1N1CCC(CCN(C)C)CC1 | < 1 µM
COc1c(Nc2cc(C)[nH]n2)nc(Sc2ccc(S(=O)(=O)C(C)(C)c3c(F)c(F)cc(F)c3F)cc2F)nc1N1CCC(NC(C)=O)C1 (centres unmarked) | < 1 µM
COc1c(Nc2cc(C)[nH]n2)nc(Sc2ccc(S(=O)(=O)C(C)(C)c3c(F)c(F)cc(F)c3F)cc2F)nc1N1CCC(OC)CC1 | < 1 µM
COc1ccc(CS(=O)(=O)c2ccc(Sc3nc(Nc4cc(C)[nH]n4)c(OC)c(N4CCOCC4)n3)c(F)c2)cc1 | < 1 µM
CNC1CCN(c2nc(Sc3ccc(S(=O)(=O)C(C)(C)c4cccc([N+](=O)[O-])c4F)cc3F)nc(Nc3cc(C)[nH]n3)c2OC)CC1 | < 1 µM
COc1c(Nc2cc(C)[nH]n2)nc(Sc2ccc(S(=O)(=O)C(C)(C)c3cccnc3)cc2)nc1N1CCN(CCN(C)C)CC1 | < 1 µM
COc1c(Nc2cc(C)[nH]n2)nc(Sc2ccc(S(=O)(=O)Cc3cccc([N+](=O)[O-])c3F)cc2F)nc1N1CCN(C)CC1 | < 1 µM
COc1c(Nc2cc(C)[nH]n2)nc(Sc2ccc(S(=O)(=O)Cc3ccccc3)cc2)nc1N1CCN(Cc2ccncc2)CC1 | < 1 µM
COc1c(Nc2cc(C)[nH]n2)nc(Sc2ccc(S(=O)(=O)Cc3cccc(C#N)c3)cc2)nc1N1CCN(CCN(C)C)CC1 | < 1 µM
COc1ccccc1CS(=O)(=O)c1ccc(Sc2nc(Nc3cc(C)[nH]n3)c(OC)c(N3CCN(CCN(C)C)CC3)n2)cc1 | < 1 µM
COc1c(Nc2cc(C)[nH]n2)nc(Sc2ccc(S(=O)(=O)Cc3cccc(C)c3)cc2)nc1N1CCN(CCN(C)C)CC1 | < 1 µM

SMILES | IC50
COc1cccc(CS(=O)(=O)c2ccc(Sc3nc(Nc4cc(C)[nH]n4)c(OC)c(N4CCN(CCN(C)C)CC4)n3)cc2)c1 | < 1 µM
CCOc1c(Nc2cc(C)[nH]n2)nc(Sc2ccc(NC(=O)C3CC3)cc2)nc1N1CCC(O)CC1 | < 1 µM
COc1c(Nc2cc(C)[nH]n2)nc(Sc2ccc(N)cc2)nc1N1CCN(CCN(C)C)CC1 | 0.1 to 1 µM
COc1c(Nc2cc(C)[nH]n2)nc(Sc2ccccc2)nc1N1CCN(CCN(C)C)CC1 | 0.1 to 1 µM
COc1c(Nc2cc(C)[nH]n2)nc(SC)nc1N1CCN(CCN(C)C)CC1 | 0.1 to 1 µM
CC(=O)Nc1ccc(Sc2nc(Nc3cc(C)[nH]n3)c(C)c(N3CCC(O)CC3C)n2)cc1 (centres unmarked) | < 1 µM
COc1c(Nc2cc(C)[nH]n2)nc(Sc2ccc(NC(C)=O)cc2)nc1N1CCN(CCN2CCOCC2)CC1 | < 1 µM
CC(=O)Nc1ccc(Sc2nc(Nc3cc(C)[nH]n3)c(C)c(N3CCC(OCCN(C)C)CC3)n2)cc1 | < 1 µM
CC(=O)Nc1ccc(Sc2nc(Nc3cc(C)[nH]n3)c(C)c(N3CCOC[C@@H]3C)n2)cc1 | < 1 µM
COc1c(Nc2cc(C)[nH]n2)nc(Sc2ccc(NC(C)=O)cc2)nc1N1CCN(CCN2CCCCC2)CC1 | < 1 µM
COc1c(Nc2cc(C)[nH]n2)nc(Sc2ccc(NC(C)=O)cc2)nc1N1CCC(OCCN(C)C)CC1 | 0.1 to 1 µM
COc1c(Nc2cc(C)[nH]n2)nc(Sc2ccc(NC(C)=O)cc2)nc1N1CCN(CCCN(C)C)CC1 | < 1 µM
COc1c(Nc2c[nH]c(C)c2)nc(Sc2ccc(NC(C)=O)cc2)nc1N1CCC(O)C1 (centres unmarked) | < 1 µM
CSc1nc(Nc2cc(C)[nH]n2)c(C)c(N2CCN(CCN(C)C)CC2)n1 | < 1 µM
COc1c(Nc2cc(C)[nH]n2)nc(Sc2ccc(NC(=O)C(F)(F)F)cc2)nc1N1CCN(CCN(C)C)CC1 | < 1 µM
CNC(=O)Nc1ccc(Sc2nc(Nc3cc(C)[nH]n3)c(OC)c(N3CCN(CCN(C)C)CC3)n2)cc1 | < 1 µM
CC(=O)Nc1ccc(Sc2nc(Nc3cc(C)[nH]n3)c(C)c(N3CCOC[C@H]3C)n2)cc1 | < 1 µM
COc1c(Nc2cc(C)[nH]n2)nc(Sc2ccc(NC(C)=O)cc2)nc1N1CCN(CCNC(C)=O)CC1 | < 1 µM
CNCCN1CCN(c2nc(Sc3ccc(NC(C)=O)cc3)nc(Nc3cc(C)[nH]n3)c2OC)CC1 | < 1 µM
COc1c(Nc2cc(C)[nH]n2)nc(Sc2ccc(S(=O)(=O)Cc3ccccc3F)cc2)nc1N1CCOCC1 | < 1 µM
COc1c(Nc2cc(C)[nH]n2)nc(Sc2ccc(S(=O)(=O)Cc3ccccc3[N+](=O)[O-])cc2)nc1N1CCN(CCN(C)C)CC1 | < 1 µM

SMILES | IC50
COc1c(Nc2cc(C)[nH]n2)nc(Sc2ccc(NC(C)=O)cc2)nc1N1CCOC[C@@H]1C | < 1 µM
COc1c(Nc2cc(C)[nH]n2)nc(Sc2ccc(NC(C)=O)cc2)nc1N1CCOC[C@H]1C | < 1 µM
COc1c(Nc2cc(C)[nH]n2)nc(Sc2ccc(NC(N)=O)cc2)nc1N1CCN(CCN(C)C)CC1 | < 1 µM
COc1c(Nc2cc(C)[nH]n2)nc(Sc2ccc(S(=O)(=O)Cc3cccc(C(F)(F)F)c3)cc2)nc1N1CCN(CCN(C)C)CC1 | < 1 µM
COc1c(Nc2cc(C)[nH]n2)nc(Sc2ccc(S(=O)(=O)Cc3cccc(F)c3F)cc2)nc1N1CCN(CCN(C)C)CC1 | < 1 µM
CC(=O)Nc1ccc(Sc2nc(Nc3cc(C)[nH]n3)c(C)c(NC3CCN(C)CC3)n2)cc1 | < 1 µM
CC(=O)Nc1ccc(Sc2nc(Nc3cc(C)[nH]n3)c(C)c(NC3CCNCC3)n2)cc1 | < 1 µM
COc1c(Nc2cc(C)[nH]n2)nc(Sc2ccc(NC(C)=O)cc2)nc1N1CCN(CC(=O)N(C)C)CC1 | < 1 µM
COc1c(Nc2cc(C)[nH]n2)nc(Sc2ccc(NC(C)=O)cc2)nc1NC1CCN(C)CC1 | < 1 µM
COc1c(Nc2cc(C)[nH]n2)nc(Sc2ccc(NC(C)=O)cc2)nc1N1CCN(C(=O)N(C)C)CC1 | < 1 µM
COc1c(Nc2cc(C)[nH]n2)nc(Sc2ccc(NC(C)=O)cc2)nc1N1CCC(CCN2CCOCC2)CC1 | < 1 µM
CCOc1c(Nc2cc(C)[nH]n2)nc(Sc2ccc(NC(=O)C3CC3)cc2)nc1N1CCNCC1 [drawing 122] | < 1 µM
CCOc1c(Nc2cc(C)[nH]n2)nc(Sc2ccc(NC(=O)C3CC3)cc2)nc1N(CC)CC [drawing 123] | < 1 µM
CCOc1c(Nc2cc(C)[nH]n2)nc(Sc2ccc(NC(=O)C3CC3)cc2)nc1N(C)CC [drawing 124] | < 1 µM
CCOc1c(Nc2cc(C)[nH]n2)nc(Sc2ccc(NC(=O)C3CC3)cc2)nc1N(C)C [drawing 125] | < 1 µM
CCOc1c(Nc2cc(C)[nH]n2)nc(Sc2ccc(NC(=O)C3CC3)cc2)nc1N1CCNCC1 [drawing 126] | 0.1 to 1 µM
CCOc1c(Nc2cc(C)[nH]n2)nc(Sc2ccc(NC(=O)C3CC3)cc2)nc1N(CC)CC [drawing 127] | 0.1 to 1 µM
CCOc1c(Nc2cc(C)[nH]n2)nc(Sc2ccc(NC(=O)C3CC3)cc2)nc1N(C)CC [drawing 128] | 0.1 to 1 µM
CCOc1c(Nc2cc(C)[nH]n2)nc(Sc2ccc(NC(=O)C3CC3)cc2)nc1N(C)C [drawing 129] | 0.1 to 1 µM
COc1c(Nc2cc(C)[nH]n2)nc(Sc2ccc(S(=O)(=O)Cc3cccc([N+](=O)[O-])c3F)cc2F)nc1N1CCCCC1 [drawing 379] | < 1 µM
